Measurements taken from patent US5763442A, “Anti-parasitic activity” (Universiteit Van Pretoria, priority 1995, dated 1998).

Tested on: Plasmodium falciparum (RB-1)
Assay: Microscopic parasitaemia, chloroquine resistant strain RB-1 (reversal of chloroquine resistance)
Type: cell-based
Conditions: for Percentage red blood cells infected with P. falciparum (RB-1): 24 h
Experimental: The activity of riminophenazines to reverse chloroquine resistance in Plasmodium falciparum was tested in the following manner:
A preliminary series of experiments were carried out using two laboratory strains of P. falciparum (RB-1 and Fab-9). These strains were obtained from the Medical Research Council, Durban, where they were characterised as being either mildly resistant or sensitive to chloroquine. The isolates were maintained in suspension culture in known manner (as described by Freese J A, Markus M B and Golenser J, 1991; Bulletin of the World Health Organization 69: 707-712).
Infected erythrocytes were diluted with human O-positive red blood cells to a parasitaemia of 0.2-0.9% and suspended to 3% in RPMI containing 44 mg/l hypoxanthine and 10% human type O serum. Aliquots (100 μl) of the suspension were dispensed into the wells of 96-well microtitre plates. To these suspensions 100 μl of the medium were added containing either chloroquine or B669 alone or in combination. The final drug concentrations were 31, 62, 125, 250 500 and 1000 nM for chloroquine and 0.125, 0.25, 0.5 and 1.0 μg/ml for B669. Relevant solvent controls were included. The plates were incubated for 24 hours at 38° C. in a desiccator gassed with 5% O2, 5% CO2 and 90% N2. Thin blood smears were prepared from each well, stained with Giemsa stain and the percentage of red blood cells infected by at least one parasite determined microscopically.

In the case of `c1ccc(Nc2cc3nc4ccccc4n(-c4ccccc4)c-3cc2=NC2CCCCC2)cc1` [Compound B669, N,5-bis(phenyl)-3,5-dihydro-3-(cyclohexylimino)-2-phenazinamine], the “increase of sensitivity to chloroquine, chloroquine resistant strain” value (125 nM chloroquine, 0.125 μg/ml B669) is reported as “up to two fold”, the “increase of sensitivity to chloroquine, chloroquine resistant strain” value (500 nM chloroquine, 0.25 μg/ml B669) is reported as “up to three fold” and the “Percentage red blood cells infected with P. falciparum (RB-1)” value (B669 0.125 μg/ml + chloroquine 125 nM, *parasites morphologically abnormal) is reported as 1.6%. The “Percentage red blood cells infected with P. falciparum (RB-1)” value (B669 0.125 μg/ml + chloroquine 500 nM) was 1.3%, the “Percentage red blood cells infected with P. falciparum (RB-1)” value (B669 0.125 μg/ml alone) was 3.6% and the “Percentage red blood cells infected with P. falciparum (RB-1)” value (B669 0.25 μg/ml + chloroquine 31 nM) was 3.9%. The “Percentage red blood cells infected with P. falciparum (RB-1)” value (B669 0.25 μg/ml + chloroquine 62 nM, *parasites morphologically abnormal) was 2.8%, the “Percentage red blood cells infected with P. falciparum (RB-1)” value (B669 0.25 μg/ml + chloroquine 125 nM, *parasites morphologically abnormal) was 1.9% and the “Percentage red blood cells infected with P. falciparum (RB-1)” value (B669 0.25 μg/ml + chloroquine 500 nM, *parasites morphologically abnormal) was 0.9%. For the same compound, the “Percentage red blood cells infected with P. falciparum (RB-1)” value (B669 0.25 μg/ml + chloroquine 1000 nM) was 0%, the “Percentage red blood cells infected with P. falciparum (RB-1)” value (B669 0.25 μg/ml alone) was 4.0% and the “Percentage red blood cells infected with P. falciparum (RB-1)” value (B669 0.5 μg/ml + chloroquine 250 nM, *parasites morphologically abnormal) was 1.4%. The “Percentage red blood cells infected with P. falciparum (RB-1)” value (B669 0.5 μg/ml + chloroquine 1000 nM) was 0.1%, the “Percentage red blood cells infected with P. falciparum (RB-1)” value (B669 0.5 μg/ml alone) was 3.2% and the “Percentage red blood cells infected with P. falciparum (RB-1)” value (B669 1.0 μg/ml + chloroquine 31 nM, *parasites morphologically abnormal) was 2.6%. For the same compound, the “Percentage red blood cells infected with P. falciparum (RB-1)” value (B669 1.0 μg/ml + chloroquine 250 nM, *parasites morphologically abnormal) was 0.1%, the “Percentage red blood cells infected with P. falciparum (RB-1)” value (B669 1.0 μg/ml + chloroquine 1000 nM) was 0% and the “Percentage red blood cells infected with P. falciparum (RB-1)” value (B669 1.0 μg/ml alone, *parasites morphologically abnormal) was 2.6%. The “direct effect on parasite morphology” value (B669 alone 1.0 μg/ml) was “morphological deterioration of the parasites was observed” and the “percentage parasitaemia versus untreated control systems” value (B669 alone 1.0 μg/ml) was “did not differ from the untreated control systems”.
